Measured values as given in US12139729B2, “Neurodegenerative disorders” (priority 2013, dated 2024).
Residues, ends and D or L forms follow the SMILES beside them.

Key:
[1] = Partition coefficient (Log P), shake-tube method, 1-octanol/water; format: physicochemical; settings: room temperature
Method: Saturation of the solvents was performed as follows. 1-octanol was agitated in the presence of water for 24 h at room temperature. mQ water was agitated in presence of 1-octanol for 24 h at room temperature. Then the solutions were left to equilibrate overnight at room temperature. Saturated solvents were collected, using syringes and needles, and stored at room temperature until further use.
Saturated water and saturated i-octanol were placed in a glass tube in the following ratios: Each tube contained the equivalent of 0.25 mg of cyclic T14. All tubes were then mixed for 4 h at room temperature. After agitation the tubes were left at room temperature to equilibrate.
The concentrations of cyclic T14 used for the standard curve were: 0.5 mg·ml^−1, 0.25 mg·ml^−1, 0.13 mg·ml^−1, 0.066 mg·ml^−1, 0.033 mg·ml^−1 and 0.016 mg/ml^−1. The absorbance of the standard curve was measured at 280 nm.
Both fractions of each sample were collected separately using a syringe with needle. The absorbance of all fractions was measured at 280 nm and the concentration of all the fraction was estimated based on the standard curve. The partition coefficient of cyclic T14 was calculated using the following equation: Log P=Log (Concentration in Octanol/Concentration in Water)
The results from each condition were averaged in order to obtain the Log P of cyclic T14.

PC12 cells [2] = experiment: Sulforhodamine B (SRB) cell viability assay; format: cell-based
Method: Wild-type PC12 cell were provided by Sigma-Aldrich (St. Louis, MO). The culture was routinely plated in 100 mm dishes (Corning) coated with collagen (2 μg/cm^2) and maintained in growth medium with Minimum Essential Medium Eagle (MEM) supplemented with heat-inactivated 10% horse serum (HS) and 5% foetal bovine serum (FBS), 10 mM HEPES, 2 mM L-Glutamine and 1:400 Penicillin/streptomycin solution. Cells were maintained at 37° C. in a humidified atmosphere 5% CO2 and the medium was replaced every 2 days. For splitting, cells were dislodged from the dish using a pipette with medium, with a portion of these replated onto new cultured dishes. Cells were used between passages 12 and 25.
The cell viability assay used was the sulforhodamine B (SRB) colorimetric assay for toxicity screening. The day before of the experiment cells were seeded onto collagen-coated 96-well plates in a concentration of 40,000 cells/well. Cell concentration was determined by the Fuchs-Rosenthal chamber. […] After treatment, medium was replaced and cells were fixed by adding 100 μl of 10% Trichloroacetic Acid (TCA) for 1 h at 4° C. Thereafter, cells were washed with H2O and stained with 100 μl of a 0.057% SRB solution in 1% Acetic acid (HAc) for 30 minutes at room temperature. After staining cells were washed with 1% HAc for removing the excess of SRB and then incubated with 200 μl of 10 mM Tris base (pH 10.5) and shake it for 5 minutes to solubilise the protein-bound dye. Measurement of the absorbance took place in a VMax Kinetic Microplate Reader (Molecular Devices) at 490 nm.

PC12 cells [3] = experiment: Cell Counting Kit-8 (CCK-8) cell viability assay; format: cell-based; settings: T30 5 uM, FIG. 15
Text: A Cell Counting Kit-8 (CCK-8) was used as an improvement of the SRB technique used before. By utilizing the highly water-soluble tetrazolium salt WST-8, CCK-8 produces a water-soluble formazan dye upon reduction in the presence of an electron carrier. WST-8 is reduced by dehydrogenases in cells to give a yellow colored product (formazan), which is soluble in the tissue culture medium. The amount of the formazan dye generated by the activity of dehydrogenases in cells is directly proportional to the number of living cells. PC12 cells are plated in 200 μl of complete growth medium the day before the experiment in 96 well plates. Treatments with T30 and NBP-14 are added and incubated for 1 hour in the incubator.
Subsequently, 100 μl of growth medium is removed and 10 μl of CCK-8 (Cell Counting Kit-8) solution is added. The plate is incubated for 2 hours in the incubator and then placed in the absorbance plate reader. The absorbance must be measured at 450 nm.

[4] = tested on: rat model for hemi-Parkinsonism; experiment: Paw placement test (cylinder test) after 6-OHDA lesion; format: in vivo; settings: day 2: two days post 6-OHDA, one day after NBP-14 injection via cannula into MFB; p<0.05 vs 6-OHDA vehicle
Method: Unlike animal models for Alzheimer's disease, the rat model for hemi-Parkinsonism is very well established and readily quantifiable. Accordingly, a unilateral intra striatum injection of the T30 was administered to observe any behavioural effects of the toxin. In a subsequent experiment, the potential protective effects of NBP14 were observed against the well-known neurotoxin 6-hydroxydopamine (6-OHDA), which led to DA neuron loss on the injected side whilst sparing the contralateral DA neurons. NBP-14 was administered via implanted cannula into the medial forebrain bundle (MFB). 6-hydroxydopamine was injected at 10 mg/kg.
Animals are anaesthetized using Ketamine (10%; 0.1 ml/kg body weight) and Xylazine (2%; 0.01 ml/kg). The animals are then stereotactically injected into the MFB with 2 μL 6-OHDA at a concentration of 20 mg/ml in 0.02% ascorbic acid. […]
Paw Placement Test (Cylinder Test): This test assesses a rat's independent forelimb use to support the body against the walls of a cylindrical enclosure. […] To perform this test, rats are placed individually in a glass cylinder (21 cm diameter, 34 cm height) and wall exploration is recorded for 3 minutes. […] Wall exploration is expressed in terms of the ratio between the intact (R) and impaired legs (L) and calculated as the values of intact right+both forelimbs divided into the values of impaired left+both forelimbs (R/L). […]

## CSCC[C@@H]1NC(=O)[C@H](Cc2ccc(O)cc2)NC(=O)[C@H](CO)NC(=O)[C@H](CO)NC(=O)[C@H](Cc2c[nH]c3ccccc23)NC(=O)[C@H](CCCNC(=N)N)NC(=O)[C@H](Cc2c[nH]cn2)NC(=O)[C@H](Cc2ccccc2)NC(=O)[C@H](CCC(=O)O)NC(=O)[C@H](C)NC(=O)[C@H](CCCCN)NC(=O)[C@H](Cc2c[nH]c3ccccc23)NC(=O)[C@H](Cc2c[nH]cn2)NC(=O)[C@H](C(C)C)NC1=O [Cyclic T14] (cyclo(AEFHRWSSYMVHWK))
[1]
  logP: -0.59
PC12 cells [2]; H2O2 100 μM + Cyclic T14 100 nM, PC12
  protection against non-specific cytotoxic effect of H2O2 (H2O2 alone vs combined): no significant difference
PC12 cells [2]; PC12, 1 hour
  threshold dose for full protection against β-amyloid: 1 nM
PC12 cells [2]; PC12, FIG. 8
  minimum effective concentration against β-Amyloid (10 μM) on cell viability: 1 nM
PC12 cells [2]; ✓ = Dream Drug feature 'Blocks β-Amyloid at low doses 1 nM)'
  blocks β-Amyloid at low doses (Table 3 feature): ✓
PC12 cells [3]
  concentration range protective against T30 induced cell death: high nanomolar range
[4]
  R/L ratio of paw placement: 3.62±0.55
